In US10703764B2, “Benzopiperazine compositions as BET bromodomain inhibitors” (FORMA Therapeutics, Inc., priority 2013, dated 2020):

Columns and labels:
BRD4 BD2 = molecular target: T1, BRD4 BD2 (Homo sapiens, UniProt O60885); assay: AlphaScreen binding assay, BRD4 Bromodomain 2
T1 construct: made in house
Outline: (§1)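 Compound dilution series were mixed with His-tagged BRD4 bromodomain and biotinylated tetra-acetylated H4 (1-21) peptide at pH 7.3 (BD1 and peptide at 50 nM, BD2 and peptide at 100 nM). Donor and acceptor beads were then added, and plates were equilibrated at least 1 h before reading. IC50 values were fitted with a four-parameter logistic model.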

BRD4 BD1 = molecular target: T2, BRD4 BD1 (Homo sapiens, UniProt O60885); assay: AlphaScreen binding assay, BRD4 Bromodomain 1
T2 construct: made in house
Outline: as §1

MV4-11 cells = assay: Oncology cell growth assay (3-day proliferation, CellTiter-Glo); type: cell-based; conditions: Homo sapiens, MV4-11, 72 h, AML cell line MV4-11, 72 hours, compounds grouped by IC50 range, read-out: MV4-11 IC50 (inhibition of proliferation, gIC50)
Outline: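 MV4-11 AML cells (RPMI 1640, 10% FBS) plated at 3000 cells/well and exposed 72 h to compound at final 10 to 0.0045 μM (3-fold series). Viability read by CellTiter-Glo luminescence; gIC50 from four-parameter logistic fit between DMSO control and no-cell background.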

Compound	IC50 (BRD4 BD2)	IC50 (BRD4 BD1)	IC50 (MV4-11 cells)
CC(=O)N1c2ccc(-c3cnn(CC(F)F)c3)cc2N(C(=O)OC(C)C)C[C@@H]1C [Example I-135, (S)-isopropyl 4-acetyl-7-(1-(2,2-difluoroethyl)-1H-pyrazol-4-yl)-3-methyl-3,4-dihydroquinoxaline-1(2H)-carboxylate]	50 to 500 nM	100 to 1000 nM	100 to 500 nM
CC(=O)N1c2ccc(-c3cnn(CCCO)c3)cc2N(C(=O)OC(C)C)C[C@@H]1C [Example I-137, (S)-isopropyl 4-acetyl-7-(1-(3-hydroxypropyl)-1H-pyrazol-4-yl)-3-methyl-3,4-dihydroquinoxaline-1(2H)-carboxylate]	50 to 500 nM	100 to 1000 nM	100 to 500 nM
CC(=O)N1c2ccc(-c3cnn(CCn4cncn4)c3)cc2N(C(=O)OC(C)C)C[C@@H]1C [Example I-139, (S)-isopropyl 7-(1-(2-(1H-1,2,4-triazol-1-yl)ethyl)-1H-pyrazol-4-yl)-4-acetyl-3-methyl-3,4-dihydroquinoxaline-1 (2H)-carboxylate]	< 50 nM	100 to 1000 nM	100 to 500 nM
CC(=O)N1c2ccc(-c3cnn(Cc4cc(C)no4)c3)cc2N(C(=O)OC(C)C)C[C@@H]1C [Example I-141, (S)-isopropyl 4-acetyl-3-methyl-7-(1-((3-methylisoxazol-5-yl)methyl)-1H-pyrazol-4-yl)-3,4-dihydroquinoxaline-1(2H)-carboxylate]	< 50 nM	100 to 1000 nM	100 to 500 nM
CC(=O)N1c2ccc(-c3cnn(Cc4cncs4)c3)cc2N(C(=O)OC(C)C)C[C@@H]1C [Example I-143, (S)-isopropyl 4-acetyl-3-methyl-7-(1-(thiazol-5-ylmethyl)-1H-pyrazol-4-yl)-3,4-dihydroquinoxaline-1(2H)-carboxylate]	50 to 500 nM	100 to 1000 nM	100 to 500 nM
CC(=O)N1c2ccc(-c3cnn(C4COC4)c3)cc2N(C(=O)OC(C)C)C[C@@H]1C [Example I-144, (S)-isopropyl 4-acetyl-3-methyl-7-(1-(oxetan-3-yl)-1H-pyrazol-4-yl)-3,4-dihydroquinoxaline-1(2H)-carboxylate]	< 50 nM	< 100 nM	100 to 500 nM
CC(=O)N1c2ccc(-c3cnn(C4CNC4)c3)cc2N(C(=O)OC2CC(F)(F)C2)C[C@@H]1C [Example I-152, (S)-3,3-difluorocyclobutyl 4-acetyl-7-(1-(azetidin-3-yl)-1H-pyrazol-4-yl)-3-methyl-3,4-dihydroquinoxaline-1(2H)-carboxylate]	< 50 nM	100 to 1000 nM	100 to 500 nM
CC(=O)N1c2ccc(-c3cnn(C4CCNCC4)c3)cc2N(C(=O)OC2CCC(F)(F)CC2)C[C@@H]1C [Example I-153, (S)-4,4-difluorocyclohexyl 4-acetyl-3-methyl-7-(1-(piperidin-4-yl)-1H-pyrazol-4-yl)-3,4-dihydroquinoxaline-1(2H)-carboxylate]	50 to 500 nM	100 to 1000 nM	100 to 500 nM
CC(=O)N1c2ccc(-c3cnn(C4CCCS(=O)(=O)C4)c3)cc2N(C(=O)OC2CCC2)C[C@@H]1C (stereo partly drawn) [Example I-158, cyclobutyl (3S)-4-acetyl-7-[1-(1,1-dioxo-16-thian-3-yl)-1H-pyrazol-4-yl]-3-methyl-1,2,3,4-tetrahydroquinoxaline-1-carboxylate]	< 50 nM	100 to 1000 nM	100 to 500 nM
CC(=O)N1c2ccc(-c3cnn(C4CCCS(=O)(=O)C4)c3)cc2N(C(=O)OC2CCOCC2)C[C@@H]1C (stereo partly drawn) [Example I-161, oxan-4-yl (3S)-4-acetyl-7-[1-(1,1-dioxo-1λ^6-thian-3-yl)-1H-pyrazol-4-yl]-3-methyl-1,2,3,4-tetrahydroquinoxaline-1-carboxylate]	50 to 500 nM	100 to 1000 nM	100 to 500 nM
CC(=O)N1c2ccc(-c3cnn(C4CCCS(=O)(=O)C4)c3)cc2N(C(=O)OC2CC(F)(F)C2)C[C@@H]1C (stereo partly drawn) [Example I-162, 3,3-difluorocyclobutyl (3S)-4-acetyl-7-[1-(1,1-dioxo-1λ^6-thian-3-yl)-1H-pyrazol-4-yl]-3-methyl-1,2,3,4-tetrahydroquinoxaline-1-carboxylate]	50 to 500 nM	100 to 1000 nM	100 to 500 nM
CC(=O)N1c2ccc(-c3cnn(C4CC4)c3)cc2N(c2nn(C)c3c(F)cccc23)C[C@@H]1C [Example I-179, 1-[(2S)-6-(1-cyclopropyl-1H-pyrazol-4-yl)-4-(7-fluoro-1-methyl-1H-indazol-3-yl)-2-methyl-1,2,3,4-tetrahydroquinoxalin-1-yl]ethan-1-one]	< 50 nM	100 to 1000 nM	100 to 500 nM

The next lines start with the values.

IC50 (BRD4 BD2)	IC50 (BRD4 BD1)	IC50 (MV4-11 cells)	Compound
50 to 500 nM	100 to 1000 nM	100 to 500 nM	CC(=O)N1c2ccc(-c3cnn(CC(C)(C)F)c3)cc2N(C(=O)OC(C)C)C[C@@H]1C [Example I-140, (S)-isopropyl 4-acetyl-7-(1-(2-fluoro-2-methylpropyl)-1H-pyrazol-4-yl)-3-methyl-3,4-dihydroquinoxaline-1(2H)-carboxylate]
50 to 500 nM	100 to 1000 nM	> 500 nM	CC(=O)N1c2ccc(-c3cnn(CC(C)(C)F)c3)cc2N(C(=O)C2CC2)C[C@@H]1C [Example I-145, (S)-1-(4-(cyclopropanecarbonyl)-6-(1-(2-fluoro-2-methylpropyl)-1H-pyrazol-4-yl)-2-methyl-3,4-dihydroquinoxalin-1 (2H)-yl)ethanone]
50 to 500 nM	1000 to 10000 nM	> 500 nM	CC(=O)N1c2ccc(-c3cnn(CCN(C)C)c3)cc2N(C(=O)C2CC2)C[C@@H]1C [Example I-146, (S)-1-(4-(cyclopropanecarbonyl)-6-(1-(2-(dimethylamino)ethyl)-1H-pyrazol-4-yl)-2-methyl-3,4-dihydroquinoxalin-1 (2H)-yl)ethanone]
50 to 500 nM	100 to 1000 nM	100 to 500 nM	CC(=O)N1c2ccc(-c3cnn(Cc4nonc4C)c3)cc2N(C(=O)C2CC2)C[C@@H]1C [Example I-147, (S)-1-(4-(cyclopropanecarbonyl)-2-methyl-6-(1-((4-methyl-1,2,5-oxadiazol-3-yl)methyl)-1H-pyrazol-4-yl)-3,4-dihydroquinoxalin-1 (2H)-yl)ethanone]
50 to 500 nM	100 to 1000 nM	100 to 500 nM	CC(=O)N1c2ccc(-c3cnn(CC4CC4(F)F)c3)cc2N(C(=O)C2CC2)C[C@@H]1C (stereo partly drawn) [Example I-148, 1-((S)-4-(cyclopropanecarbonyl)-6-(1-((2,2-difluorocyclopropyl)methyl)-1H-pyrazol-4-yl)-2-methyl-3,4-dihydroquinoxalin-1(2H)-yl)ethanone]
50 to 500 nM	100 to 1000 nM	100 to 500 nM	CC(=O)N1c2ccc(-c3cnn(Cc4cc(C)no4)c3)cc2N(C(=O)C2CC2)C[C@@H]1C [Example I-149, (S)-1-(4-(cyclopropanecarbonyl)-2-methyl-6-(1-((3-methylisoxazol-5-yl)methyl)-1H-pyrazol-4-yl)-3,4-dihydroquinoxalin-1 (2H)-yl)ethanone]
< 50 nM	100 to 1000 nM	> 500 nM	CC(=O)N1c2ccc(-c3cnn(CCC(F)(F)F)c3)cc2N(C(=O)C2CC2)C[C@@H]1C [Example I-150, (S)-1-(4-(cyclopropanecarbonyl)-2-methyl-6-(1-(3,3,3-trifluoropropyl)-1H-pyrazol-4-yl)-3,4-dihydroquinoxalin-1(2H)-yl)ethanone]
